# What was measured:
# Experiment in all cases: relative viability (nuclei count vs DMSO), 5 days (fraction); higher = more cells survive
# [1] = compound: C1CCC(CC1)N(CCNCCC2=C3C(=C(C=C2)O)NC(=O)CO3)C(=O)CCNCCC4=CC(=C(C=C4)Cl)Cl [AZ505] + COc1cccc2cc(-c3nc([C@H]4CC[C@H](C(=O)O)CC4)n4ncnc(N)c34)[nH]c12 [OSI-027] (partner 0.5 µM)
# Summary of the method: (§1)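 One day after seeding in 1536-well plates, lung cancer cell lines were dosed by pin tool. Dosing was either single-drug or a fixed anchor-drug dose plus five library-drug doses (not always all listed) in √10 steps. After 5 days, nuclei were stained in one fix-and-stain step and counted on 4× images, and relative viability is the nuclei count of treated wells over that of vehicle wells, given as the median of duplicate plates.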
# [2] = compound: C1CCC(CC1)N(CCNCCC2=C3C(=C(C=C2)O)NC(=O)CO3)C(=O)CCNCCC4=CC(=C(C=C4)Cl)Cl [AZ505] + O=C(CCCCCCC(=O)Nc1ccccc1)NO [Vorinostat] (partner 1 µM)
# Summary of the method: as §1
# [3] = compound: Cn1c(=O)n(-c2ccc(C(C)(C)C#N)cc2)c2c3cc(-c4cnc5ccccc5c4)ccc3ncc21 [Dactolisib] + CC1(C)CCC(c2ccc(Cl)cc2)=C(CN2CCN(c3ccc(C(=O)NS(=O)(=O)c4ccc(N[C@H](CCN5CCOCC5)CSc5ccccc5)c(S(=O)(=O)C(F)(F)F)c4)cc3)CC2)C1 [Navitoclax] (partner 0.5 µM)
# Summary of the method: as §1
# [4] = compound: Cn1c(=O)n(-c2ccc(C(C)(C)C#N)cc2)c2c3cc(-c4cnc5ccccc5c4)ccc3ncc21 [Dactolisib] + C[C@]1(O)C[C@@H](c2nc(-c3ccc4ccc(-c5ccccc5)nc4c3)c3c(N)nccn32)C1 [Linsitinib] (partner 1 µM)
# Summary of the method: as §1
Cell Line,relative viability ([1]; first compound 0.08 µM),relative viability ([1]; first compound 0.253 µM),relative viability ([1]; first compound 0.8 µM),relative viability ([1]; first compound 2.53 µM),relative viability ([1]; first compound 8 µM),relative viability ([2]; first compound 0.08 µM),relative viability ([2]; first compound 0.253 µM),relative viability ([2]; first compound 0.8 µM),relative viability ([2]; first compound 2.53 µM),relative viability ([2]; first compound 8 µM),relative viability ([3]; first compound 0.002 µM),relative viability ([3]; first compound 0.006325 µM),relative viability ([3]; first compound 0.02 µM),relative viability ([3]; first compound 0.06325 µM),relative viability ([3]; first compound 0.2 µM),relative viability ([4]; first compound 0.002 µM),relative viability ([4]; first compound 0.006325 µM),relative viability ([4]; first compound 0.02 µM),relative viability ([4]; first compound 0.06325 µM),relative viability ([4]; first compound 0.2 µM)
LK-2,0.238,0.206,0.232,0.229,0.2,0.295,0.318,0.33,0.405,0.392,0.773,0.852,0.639,0.381,0.282,0.389,0.508,0.507,0.169,0.251
LOU-NH91,0.634,0.674,0.638,0.672,0.656,0.837,0.855,0.91,0.856,0.908,0.547,0.6,0.646,0.431,0.385,0.712,0.888,0.837,0.588,0.527
LU99A,–,0.346,0.271,0.32,0.329,0.545,0.533,0.506,–,0.504,0.704,0.689,0.291,0.173,0.185,0.572,0.468,0.307,0.218,0.223
LXF-289,0.701,0.748,0.763,0.668,0.959,0.807,0.787,0.808,0.703,0.787,1.02,0.932,1,0.828,0.571,0.952,0.98,0.987,0.757,0.658
NCI-H23,0.54,–,0.609,0.71,0.563,0.526,0.582,0.561,0.81,0.627,0.934,0.842,0.829,0.412,0.346,0.553,0.598,0.368,0.243,0.287
NCI-H322M,0.535,0.332,0.601,0.572,0.553,0.824,–,0.888,0.837,0.882,1.22,1.17,1.16,0.733,0.677,0.939,0.826,0.84,0.586,0.442
NCI-H441,0.66,0.595,0.614,0.579,0.703,0.786,0.881,0.735,0.782,0.876,0.851,0.416,0.577,0.237,0.303,0.594,0.592,0.435,0.343,0.286
NCI-H460,0.636,0.71,0.57,0.57,0.845,0.69,0.912,0.672,0.71,0.782,1.21,1.02,1.16,0.169,0.0342,0.933,0.654,0.434,0.0937,0.0501
NCI-H520,0.26,0.285,0.288,0.306,0.322,0.594,0.847,0.648,0.731,0.781,1.01,0.871,0.633,0.261,0.184,1.02,0.731,0.53,0.191,0.186
NCI-H596,0.591,0.517,0.937,0.685,0.847,0.549,–,0.577,0.612,0.521,0.894,0.852,0.701,0.416,0.171,1.18,0.935,0.924,0.523,0.387
NCI-H647,0.615,0.698,0.488,0.619,0.693,0.446,0.747,0.529,0.583,1.06,1.1,0.964,0.685,0.295,0.348,1.15,0.898,0.736,0.192,0.146
NCI-H727,0.388,0.576,0.517,–,0.651,1.11,1.07,1.2,1.11,1.3,0.467,0.506,0.341,0.248,0.162,0.271,0.317,0.266,0.213,0.37
NCI-H838,0.402,0.438,0.402,0.34,0.398,0.674,0.73,0.67,0.737,0.787,1.13,0.776,0.474,0.205,0.251,0.915,0.444,0.652,0.226,0.22
NCI-H1355,0.395,0.319,0.384,0.362,0.429,0.53,0.59,0.585,0.624,0.62,0.959,0.836,0.86,0.335,0.234,0.848,0.761,0.733,0.354,0.257
NCI-H1395,0.685,0.543,0.563,0.622,0.604,0.711,–,0.68,0.744,0.812,0.834,1.03,0.999,0.821,0.631,0.91,0.844,0.998,0.653,0.834
NCI-H1437,0.864,0.963,0.911,0.823,0.872,0.828,0.838,0.858,0.955,0.823,1.2,1.07,1.07,0.967,0.837,1.05,0.985,0.981,0.596,0.315

# Reference: the supplement of paper PMC10307832
